Assay results from patent publication US12616203B2, “Use of 3-isoxazolidinones compounds as selective herbicides” (FMC Corporation, priority 2014, dated 2026).

Experiments:
yellow nutsedge (YN) = test: PRE greenhouse, 2,4-DC + sulfentrazone, % control; type: in vivo, Cyperus esculentus; conditions: 28 DAT, g ai/ha by row: r8-16 2,4-DC 50/100/200 (3 rows each) + sulfentrazone 105/210/315 (cycling)
Experimental: Test compositions containing 2,4-DC Example 1B and sulfentrazone (Spartan® 4F, 39.6% active ingredient, FMC Corp.) and mixtures of 2-(2,4-dichlorophenyl)methyl-4,4-dimethyl-3-isoxazolidinone and sulfentrazone, were diluted with water to provide the appropriate test rate concentration.
The test weeds were Pennsylvania smartweed (PS) (Polygonum pennsylvanicum), Palmer amaranth (PA) (Amaranthus palmeri), velvetleaf (VL) (Abutilon theophrasti), green foxtail (GF) (Setaria viridis), morningglory (MG) (Ipomoea spp.), yellow nutsedge (YN) (Cyperus esculentus), purple nutsedge (PN) (Cyperus rotundus), and benghal dayflower (BD) (Commelina benghalensis). Crops included in the evaluation were corn, wheat, and cowpea.
For pre-emergence testing, four disposable fiber flats (6″ by 10″) for each rate of application of each herbicide solution were filled with top soil, to which seeds of each species were planted in furrows made by a template pressed on the top of the soil. The furrows with crop/weed seeds were covered with soil and were watered well before application of the test compounds. Flats designated for treatment were placed in a spray chamber having a static platform and a movable sprayer and height of the spray nozzle was 10.5 inches above the soil level. Once the sprayer was calibrated using water for spray volume of 30 gallons per acre, flats were sprayed with sprayer at a speed to receive a coverage equivalent of 30 gallons per acre.
The application rates are those shown in Table 3, 3A, an d 3B below for the individual herbicidal solutions and the herbicide compositions of the present invention. The pre-emergence flats were immediately placed in the greenhouse and watered lightly after treatment for herbicide activation. Thereafter they were regularly watered and feterilized for the duration of the test. The control of weeds was evaluated in each experimental test at 28 days after treatment (DAT), 14 DAT for crops. The results, shown as an average of the replications, were compared with results observed in untreated control flats in the same tests. Percent weed control was determined by a method similar to the 0 to 100 rating system disclosed in “Research Methods in Weed Science,” 2nd ed., B. Truelove, Ed.; Southern Weed Science Society; Auburn University, Auburn, Ala., 1977.

weeds; Wheat and Barley [1] = test: Ex41 POST greenhouse; type: in vivo; conditions: rate in the words
Experimental: Treatments were applied to wheat and barley crops.
Nonionic surfactant was added at 0.5% v/v in all treatments. Treatments were applied to wheat (5.5″), barley (5″), wild oat (5.5″), common chickweed (2″), wild buckwheat (3″), and common lambsquarters (2″). All plant species were direct seeded into 3″ plastic pots using metro-mix as growth media and pots were watered well before application and watered 24 h after application. Plants were watered and fertilized routinely after treatment application. Each treatment was replicated four times.

[2] = system: weeds; cotton, lentil, mung bean, bush bean, and cowpea; test: Ex33 PRE greenhouse; type: in vivo; conditions: rate in the words
Excerpt: ANTHEM® (fluthiacet-methyl, 0.69% plus pyroxasulfone, 22.61%) was included as a standard at labeled rate, Fluthiacet-methyl at 4.9 g ai/ha and pyroxasulfone at 165 g ai/ha. […] The following weeds were screened, Palmer amaranth, Pennsylvania smartweed, velvetleaf, green foxtail, morningglory, Italian ryegrass, prickly sida, and yellow nutsedge. Crops screened were cotton, lentil, mung bean, bush bean, and cowpea. […] Thereafter flats were watered and fertilized routinely.

weeds; Corn = test: Ex25 PRE greenhouse; type: in vivo; conditions: rate in the words
Excerpt: The crop tested in this study was Corn.
2,4 DC-21 (36.7% CS) was applied PRE at 0, 125, 170, 210, or 250 g ai/ha alone or as a tank-mix with pyroxasulfone (KIH-485, 85% WP) at 0, 50, 65, 80, or 95 g ai/ha. Pyroxasulfone plus fluthiacet-methyl (Anthem™, 23.3%) applied at 169.9 g ai/ha, s-metolachlor (Dual II Magnum®, 82.4%) applied at 1389 g, and the tank-mix of mesotrione (Callisto®, 40%) at 123 g plus s-metolachlor (Dual II Magnum®, 82.4%) at 1252 g were included as a standards for comparison. […] Thereafter flats were watered and fertilized routinely.

jimsonweed = test: Ex15 PRE 2,4-DC + S-metolachlor, % control 28 DAT, Colby; type: in vivo, Datura stramonium
Excerpt: The weeds tested in this study were redroot pigweed (Amaranthus retroflexus, AMARE), Jimsonweed (Datura stramonium, DATST), black nightshade (Solanum nigrum, SOLNI), large crabgrass (Digitaria sanguinalis, DIGSA), Pennsylvania smartweed (Polygonum pensylvanicum, POLPY), horseweed (Conyza canadensis, ERICA), wild buckwheat (Polygonum convolvulus, POLCO). The crop tested was Corn (var. Viking).
To determine PRE efficacy and corn injury, five rates of each 2,4 DC (36.7% CS) and S-metolachlor (Dual II Magnum®, 82.4%) were applied either alone or as tank-mix. 2,4 DC was applied at 0, 125, 170, 210, or 250 g ai/ha and S-metolachlor was applied at 0, 267, 534, 801, or 1070 g ai/ha. Additional treatments included application of premix of pyroxasulfone plus fluthiacet-methyl (Anthem™ 23.3%) at 169.9 g ai/ha and tank-mix of mesotrione (Callisto®, 40%) at 123 g plus S-metolachlor at 1252 g. Treatments were applied just after the planting of large crabgrass, Jimsonweed, black nightshade, redroot pigweed, Pennsylvania smartweed, horseweed, wild buckwheat, and corn.
Flats were watered and fertilized routinely after treatment application. Each treatment was replicated three times. […] Corn injury was rated for bleaching and stunting.

weeds; canola, and wheat = test: Ex30 PRE greenhouse; type: in vivo
Excerpt: Treatments were applied before the emergence of Italian ryegrass, wild oat, blackgrass, littleseed canarygrass, common chickweed, common lambsquarters, corn poppy, silky windgrass, redroot pigweed, wild mustard, annual bluegrass, canola, and wheat. […] Flats were watered and fertilized routinely after treatment application.

weeds; Wheat and Barley [3] = test: Ex14 POST greenhouse; type: in vivo; conditions: 28 DAT, rate in the words
Excerpt: The study further assessed post crop safety on Wheat and Barley.
Nonionic surfactant at 0.5% (v/v) was included with commercial standards application. No adjuvant was applied with any other treatments. All plant species were direct seeded into 3″ plastic pots using metro-mix as growth media. At treatment application common lambsquarters was 1.75″, common chickweed was 2″, wild mustard was 2.25″, wild oat was 5.5″, wild buckwheat was 2-5″, Italian ryegrass was 2-3″, wheat was 5.5″, and barley was 4.5″ in height. Plants were watered well before application and not watered 24 h after application. Plants were watered and fertilized routinely after treatment application. Each treatment was replicated four times.

Structure (SMILES): CC1(C)CON(Cc2ccc(Cl)cc2Cl)C1=O [2,4-DC, 2-(2,4-dichlorophenyl)methyl-4,4-dimethyl-3-isoxazolidinone]
- % Control YN (yellow nutsedge (YN); r17-19 2,4-DC 50/100/200, r20-22 sulfentrazone 105/210/315, 50 g ai/ha): 10%
- % Control YN (yellow nutsedge (YN); r17-19 2,4-DC 50/100/200, r20-22 sulfentrazone 105/210/315, 100 g ai/ha): 12%
- % Control YN (yellow nutsedge (YN); r17-19 2,4-DC 50/100/200, r20-22 sulfentrazone 105/210/315, 200 g ai/ha): 13%
- weed control / crop safety in words (weeds; Wheat and Barley [1]): Wheat was safe with 2,4-DC alone up to 170 g ai/ha, barley was not safe with any rate of 2,4-DC alone
- weed control / crop safety in words [2]: controlled prickly sida, at 125 g controlled green foxtail
- weed control / crop safety in words ([2]; listed as 2, 4 DC): applied alone PRE was safe on cotton, mung bean, bush bean, and cowpea at all rates, lentil was not safe at any rate
- weed control / crop safety in words (weeds; Corn): applied alone controlled (≥85% injury) black nightshade at 170 g ai/ha, did not provide control of other weeds tested when applied alone at any rate, and was safe on corn at all rates
- X (jimsonweed; 2,4-DC alone 125 g ai/ha): 37%
- X (jimsonweed; 2,4-DC alone 170 g ai/ha): 40%
- X (jimsonweed; 2,4-DC alone 210 g ai/ha): 48%
- X (jimsonweed; 2,4-DC alone 250 g ai/ha): 53%
- injury to canola (weeds; canola, and wheat; at 100 g): 11%
- injury to wheat (weeds; canola, and wheat; at 200 g): 11%
- weed control in words (weeds; canola, and wheat; weed and rate in the words): alone gave control of pigweed, corn poppy, and Italian ryegrass at ≥200 g ai/ha, wild oat at 400 g, blackgrass at ≥100 g, and common chickweed at all rates
- weed control / crop safety in words (weeds; Wheat and Barley [3]): applied alone did not control any weed in the assay, and was safe at all rates on both wheat and barley
